The values that follow come from patent US8741955B2, “D-serine transporter inhibitors as pharmaceutical compositions for the treatment of central nervous system disorders” (Allergan, Inc., priority 2011, dated 2014).

“Also recorded” adds a separate entry of the source. A value given as a limit tells only on which side of the number the result lay.

For test [1], the system named is amphetamine-induced hyperlocomotion in mice. The test can be described thus: amphetamine induced hyperactivity. It is filed as in vivo. To be noted: for effect on amphetamine-induced hyperactivity/hyperlocomotion: systemic administration, amphetamine 2 mg/kg s.c. On the procedure:
C57B/6 male mice (n=5-10/group) were placed in an open field apparatus and their activity was measured for 30 minutes. At 30 minutes, they received a vehicle injection or injection of test compound followed by an injection of amphetamine (2 mg/kg, s.c.) at minute 45. Their activity levels were subsequently measured for another 1 hour post-injection. Total activity for each 5 minute bin (21 total bins) was added to establish the activity curve over the 105 minute testing.

The target in a further test is T1, asc-1 (Rattus norvegicus, UniProt P63116).
T1 construct: from tissue; host or cells: rat forebrain P2 (synaptosome) fraction
T1 sequence (P63116 1-530): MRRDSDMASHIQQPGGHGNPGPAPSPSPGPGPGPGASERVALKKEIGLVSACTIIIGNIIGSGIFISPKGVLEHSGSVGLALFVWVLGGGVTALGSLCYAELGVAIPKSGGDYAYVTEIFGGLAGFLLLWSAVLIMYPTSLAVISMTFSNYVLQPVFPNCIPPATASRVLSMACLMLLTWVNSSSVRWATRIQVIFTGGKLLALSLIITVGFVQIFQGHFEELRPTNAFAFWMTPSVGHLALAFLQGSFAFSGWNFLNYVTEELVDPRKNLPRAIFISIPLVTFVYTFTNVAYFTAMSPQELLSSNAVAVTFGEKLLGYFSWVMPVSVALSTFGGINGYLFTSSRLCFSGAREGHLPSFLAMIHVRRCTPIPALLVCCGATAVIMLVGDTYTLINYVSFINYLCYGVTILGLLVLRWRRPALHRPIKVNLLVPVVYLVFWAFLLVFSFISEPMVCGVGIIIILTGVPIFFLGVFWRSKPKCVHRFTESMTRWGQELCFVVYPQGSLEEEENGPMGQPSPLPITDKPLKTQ
T1 sequence (Q794F9 1-527 partner): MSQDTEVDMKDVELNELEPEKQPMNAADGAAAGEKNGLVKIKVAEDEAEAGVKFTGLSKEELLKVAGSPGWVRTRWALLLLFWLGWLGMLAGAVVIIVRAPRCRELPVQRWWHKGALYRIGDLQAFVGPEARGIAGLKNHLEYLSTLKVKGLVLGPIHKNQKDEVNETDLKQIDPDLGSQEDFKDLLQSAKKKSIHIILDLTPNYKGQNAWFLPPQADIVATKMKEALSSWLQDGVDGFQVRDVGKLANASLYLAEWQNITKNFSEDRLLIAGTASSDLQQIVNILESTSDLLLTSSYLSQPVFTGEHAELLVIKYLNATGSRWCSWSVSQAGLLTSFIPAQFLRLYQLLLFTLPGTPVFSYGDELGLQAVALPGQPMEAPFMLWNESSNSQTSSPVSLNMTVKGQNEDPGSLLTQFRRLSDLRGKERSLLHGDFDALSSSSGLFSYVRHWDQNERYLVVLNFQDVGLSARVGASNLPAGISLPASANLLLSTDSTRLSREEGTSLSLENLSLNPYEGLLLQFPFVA
Put plainly: sodium-independent [3H]D-serine transport into rat forebrain synaptosomes. It is filed as biochemical. To be noted: inhibition of [3H]D-serine transport, rat brain synaptosomes; means of at least two determinations. On the procedure:
Under the assay conditions used, the sodium-independent transport of D-serine by rodent forebrain synaptosomes is mediated by asc-1 (Rutter et al., 2007), and the sodium-dependent transport of D-serine into astrocytes in culture is mediated by an ASCT transporter, ASCT2 according to the literature (Ribeiro et al., 2002).
Synaptosome assays: a P2 fraction of rat forebrain was prepared and assayed immediately. Aliquots of the P2 preparation (approx. 1 mg of original tissue weight) were incubated in sodium-free assay buffer (CholineCl: 128 mM, KCl: 3.5 mM; KH2PO4: 1.5 mM; MgCl2: 1 mM; CaCl2: 1 mM; glucose: 10 mM; Tris-acetate buffer: 10 mM, pH7.4) containing [^3H]D-serine (final concentration of 50 nM) and test compounds in duplicate for 4 mins at room temperature. The synaptosomes containing radiolabel were collected by filtration onto Whatman GF/C filters, and washed twice with ice cold assay buffer. Filters were solubilized in scintillation fluid and radioactivity determined in a beta counter. IC50 values were determined as described for the cell-based assays above.

The subject of test [2] is LTP in the rat hippocampal slice. Put plainly: LTP in the rat hippocampal slice preparation. To be noted: 100 μM.
Test [3] concerns rat hippocampal astrocytes. The test can be described thus: [3H]D-serine transport into primary cultures of rat hippocampal astrocytes. The format is cell-based. To be noted: for IC50: Astrocyte, inhibition of [3H]D-serine transport, rat hippocampal astrocytes, means of at least two determinations; for fraction of D-serine transport represented by the component for which the compound shows higher affinity: two-component inhibition curves in astrocytes.

The target in a further test is T2, human ASCT1 (Homo sapiens, UniProt P43007).
T2 construct: expressed in transfected cells; host or cells: HEK (human embryonic kidney) cells
T2 sequence (P43007 1-532): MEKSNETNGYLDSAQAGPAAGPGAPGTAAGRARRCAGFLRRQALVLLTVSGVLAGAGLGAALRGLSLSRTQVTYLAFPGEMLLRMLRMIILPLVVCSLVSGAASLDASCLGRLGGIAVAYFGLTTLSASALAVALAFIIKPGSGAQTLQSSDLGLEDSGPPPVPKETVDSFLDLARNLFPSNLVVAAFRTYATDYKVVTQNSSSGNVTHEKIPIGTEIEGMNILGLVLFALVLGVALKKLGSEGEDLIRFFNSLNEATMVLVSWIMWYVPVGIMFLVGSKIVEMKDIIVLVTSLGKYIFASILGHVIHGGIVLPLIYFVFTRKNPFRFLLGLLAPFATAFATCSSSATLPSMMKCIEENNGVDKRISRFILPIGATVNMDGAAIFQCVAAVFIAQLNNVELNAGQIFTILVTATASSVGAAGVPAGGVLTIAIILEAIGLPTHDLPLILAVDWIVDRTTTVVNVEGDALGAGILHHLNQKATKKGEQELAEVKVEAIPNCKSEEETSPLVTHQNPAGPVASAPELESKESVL
Put plainly: transport into HEK cells expressing ASCT1. The format is cell-based. To be noted: [3H]L-serine transport, HEK cells. On the procedure:
(§1) Cell-based assays: the transport of [^3H]L- or D-serine was measured in primary cultures of rat hippocampal astrocytes or in human embryonic kidney (HEK) cells expressing ASCT transporter sub-types. For the astrocyte assays, cells were plated on either 24- or 96-well plates at a density of 50,000 cells per well. For the HEK assays, cells were plated on coated 96-well plates at a density of 80,000 cells/well. Assays were conducted in duplicate at room temperature in assay buffer consisting of: NaCl: 150 mM, KCl: 2 mM; MgCl2: 1 mM; CaCl2: 1 mM; HEPES: Tris buffer: 10 mM, pH7.4. To assess the sodium-dependence of transport, NaCl was replaced in the assay buffer by equimolar choline chloride. Following aspiration of growth medium and 2 washes with assay buffer, cells were incubated with [^3H]L- or D-serine at a final concentration of 1 μM for 5 min (astrocytes) or 1 min (HEK cells), after which the incubation medium was aspirated and the cells washed twice with ice-cold assay buffer. Cells containing radiolabel were solubilized in 100 μl of 1% Triton-X100 and an aliquot counted in a beta counter. IC50 values were determined over a range of at least 6 concentrations and derived from curve-fitting algorithms available in GraphPad Prism 4.

The next test concerns the target T3, human ASCT2 (Homo sapiens, UniProt Q15758).
T3 construct: expressed in transfected cells; host or cells: HEK (human embryonic kidney) cells
T3 sequence (Q15758 1-541): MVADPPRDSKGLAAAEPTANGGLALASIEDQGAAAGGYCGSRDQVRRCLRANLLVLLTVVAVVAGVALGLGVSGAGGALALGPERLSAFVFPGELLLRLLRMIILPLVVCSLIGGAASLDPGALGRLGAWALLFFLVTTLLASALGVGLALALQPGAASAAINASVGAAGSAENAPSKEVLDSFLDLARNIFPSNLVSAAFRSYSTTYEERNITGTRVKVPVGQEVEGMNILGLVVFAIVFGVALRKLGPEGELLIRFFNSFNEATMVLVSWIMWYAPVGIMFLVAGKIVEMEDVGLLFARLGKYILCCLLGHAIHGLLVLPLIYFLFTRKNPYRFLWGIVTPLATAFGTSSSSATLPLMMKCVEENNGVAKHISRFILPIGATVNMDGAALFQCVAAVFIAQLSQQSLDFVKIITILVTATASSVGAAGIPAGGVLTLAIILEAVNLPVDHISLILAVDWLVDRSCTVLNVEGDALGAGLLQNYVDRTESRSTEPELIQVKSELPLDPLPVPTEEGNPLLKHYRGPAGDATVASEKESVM
Put plainly: transport into HEK cells expressing ASCT2. To be noted: [3H]L-serine transport, HEK cells. It is filed as cell-based. The protocol:
as §1

Another test has as its system ASCT2. To be noted: Utsunomiya-Tate 1996; Broer 1999; Torres-Zamorano 1998; cited from earlier work.

Turning to `O=C(O)[C@@H]1C[C@@H](Cc2ccc(Cl)cc2Cl)CN1` [R-gamma-2,4-dichlorobenzyl-L-proline], the “effect on amphetamine-induced hyperactivity/hyperlocomotion” value in test [1] was “effective”.
As to `N[C@@H](CCC(=O)Nc1ccc([N+](=O)[O-])cc1)C(=O)O` [L-GPNA, L-gamma-glutamyl-4-nitroanilide], the concentration for half-maximal inhibition (IC50) against asc-1 amounted to 453 µM. Further, the “effect on LTP in the rat hippocampal slice” value in test [2] is given as “enhance LTP”.
Turning to `NC(C(=O)O)c1ccccc1F` (racemic) [DL-2-fluorophenylglycine], the IC50 amounted to 348 µM against asc-1 and 1570 µM in test [3].
In the same order, the values of `N[C@@H](CCC(=O)OCc1ccccc1)C(=O)O` [L-glutamate-γ-benzyl ester] are 62 µM and 3000 µM.
Take `N[C@@H](CSCc1ccccc1)C(=O)O` [S-benzyl-L-cysteine]: the half-maximal inhibitory concentration (IC50) against asc-1 came to 86 µM.
`N[C@H](C(=O)O)c1ccc(F)cc1` [L-4-fluorophenylglycine]: the values for the concentration for half-maximal inhibition (IC50) (on asc-1; in test [3]) were 258 µM and 27.9 µM, respectively. Further, the “effect on amphetamine-induced hyperlocomotion at 0.3 mg/kg ip” value in test [1] (0.3 mg/kg ip) is reported as “significant effect”. In addition, the “effect on amphetamine-induced hyperactivity/hyperlocomotion” value in test [1] is on record as “potent dose-dependent inhibitor”.
As for `N[C@@H](CSc1ccccc1)C(=O)O` [S-phenyl-L-cysteine], the values for the half-inhibitory concentration (IC50) (at asc-1; in test [3]) were 29.3 µM and 597 µM, respectively.
Take `N[C@@H](CO)C(=O)O` [L-serine]: the IC50 against asc-1 was 9.6 µM; in test [3], 57.9 µM.
On to `O=C(O)[C@@H]1C[C@@H](O)CN1` [L-trans-4-hydroxyproline], for which the 50% inhibitory concentration (IC50) on asc-1 was greater than 10000 µM; in test [3], 38.9 µM. Besides, in test [3], the “fraction of D-serine transport represented by the component for which the compound shows higher affinity” value is on record as “approximately 60%”. In addition, the “selectivity for ASCT1 over ASCT2” value is given as “showed selectivity towards ASCT1” at human ASCT1 (listed as L-t-4OHPro) and “selective for ASCT1” on human ASCT1 (listed as L-trans-4OHPro).
The compound `NC(=O)CC[C@H](N)C(=O)O` [L-glutamine] gave a 50% inhibitory concentration (IC50) at asc-1 of 943 µM. The “selectivity for ASCT2 over ASCT1” value at human ASCT2 was “showed selectivity towards ASCT2; also recorded: selective for ASCT2”. For the same compound, in test [3], the IC50 came to 1640 µM and the “fraction of D-serine transport represented by the component for which the compound shows higher affinity” value was “approximately 40%”. For the same compound, the “affinity for ASCT2 reported in the literature” value with ASCT2 was 23 to 70 µM.
At asc-1, `NC(=O)C[C@H](N)C(=O)O` [L-asparagine] yielded an IC50 of 668 µM.
